Values after ≈ are worked out from the molar mass of the structure shown. Read-outs that look alike come from different tables or passages of the source.
Legend:
ABTS assay = conditions: ABTS radical scavenging; 10 min, 30 °C
Description: The ABTS assay was performed spectrophotometrically. […] ABTS solution with methanol/DMSO (9/1 v/v) was used as a control. After 10 min of incubation at 30 °C in the dark, the absorbance was analyzed at λ = 750 nm by a 96-well microplate reader (Epoch, BioTek System, Santa Clara, CA, USA). Ascorbic acid was used as a standard.
ABTS inhibition was calculated by the following equation:ABTS Inhibition (%) = [Acontrol − Asample)/Acontrol] × 100%
(§1) IC50 values of the samples were calculated using program GraFit v. 7.0 (Erithacus Software). The analysis was performed three times, with tree replications in each (n = 9). Statistical analysis was performed with one-way ANOVA with Tuckey’s post-hoc test.

C. diphtheriae = experiment: MIC determination, reference strain (microdilution); format: cell-based; conditions: Corynebacterium diphtheriae; C. diphtheriae; Co-trimoxazole as sulfamethoxazole/trimethoprim; read-out: MIC
DPPH assay = conditions: DPPH radical scavenging; 40 min, room temperature
Description: The DPPH assay was performed spectrophotometrically. The amount of 30 µL of different concentrations of samples, dissolved in methanol/DMSO (9/1 v/v), was mixed with 170 µL of 0.06 mM DPPH methanolic solution and completed with methanol to a final volume of 300 µL. DPPH methanolic solution with methanol/DMSO (9/1 v/v) was used as a control. After 40 min of incubation at room temperature in the dark, the absorbance was analyzed at λ = 510 nm by a 96-well microplate reader (Epoch, BioTek System, Santa Clara, CA, USA). Ascorbic acid was used as a standard.
DPPH inhibition was calculated by the following equation:DPPH Inhibition (%) = [Acontrol − Asample)/Acontrol] × 100%
as §1

[1] = system: Staphylococcus sp. and Enterococcus sp.; experiment: MIC, summary statements on reference Gram-positive cocci; format: cell-based; conditions: Staphylococcus and Enterococcus species, reference Gram-positive cocci (range over strains)
Description: Sterile sheep blood defibrinated (GrasoBiotech). Co-trimoxazole (composition sulfamethoxazole 400 mg/trimethoprim 80 mg; WZF Polfa Poland). Ketoconazole (WZF Polfa Poland). Bacteria: Enterococcus hirae ATCC 10541 and Enterococcus faecalis ATCC 51299, Staphylococcus epidermidis ATCC 14990, Staphylococcus aureus ATCC 6538, clinical strains Staphylococcus aureus MRSA, clinical strains Staphylococcus sp. (MRCNS), clinical strain Staphylococcus epidermidis MRSE, clinical strain Enterococcus sp., Corynebacterium diphtheriae ZMF, Bacillus subtilis ATCC 6633, Escherichia coli ATCC 8739, Candida albicans ATCC 10231. Brain-heart infusion broth (BHI, Becton Dickinson) for Enterococcus hirae ATCC 10541 and Enterococcus faecalis ATCC 51299, BHI supplement with 10% bovine serum for Bacillus subtilis, Corynebacterium diphtheriae ZMF, Staphylococcus epidermidis ATCC 14990, Staphylococcus aureus ATCC 6538, clinical strains Staphylococcus aureus MRSA, clinical strains Staphylococcus sp. (CNS), clinical strain Staphylococcus epidermidis MRSE grew in Mueller-Hinton broth (MH cation-adjusted, Becton Dickinson) in an aerobic atmosphere at 37 °C for 48 h, in an aerobic atmosphere at 37 °C for 72 h. Candida albicans grew in Sabourauda broth (Sb, Becton Dickinson), in an aerobic atmosphere at 37 °C for 72 h. After determination of the bacterial viability, BHI blood agar plates, MH agar plates, and Sb agar plates were used.
The MIC determination for the reference and clinical strains was performed based on the methodology described by Kula et al.. The dry test samples were dissolved in dimethyl sulfoxide (DMSO) and diluted in water, resulting in a finale concentration of about 500 µg/mL. These solutions were diluted and added to the first well of each microtiter line. Dilution in geometric progression was done by transferring the mixture/dilution (100 μL) from the first to the twelfth well. An aliquot (100 μL) was discarded from the twelfth well. The final concentration of the samples used in the antimicrobial activity assay ranged from 125 to 0.006 µg/mL. Co-trimoxazole (for bacteria), with the composition sulfamethoxazole 400 mg/trimethoprim 80 mg was used as a reference compound in the concentration range of 20 000/4000 to 1/0.2 µg/mL. Ketoconazole (for fungi) was used as a reference compound in the concentration range of 125 to 0.006 µg/mL. Tests were incubated in adequate conditions described by Kula et al.. Diluent concentration had no effect on the activity of the tested compounds. All experiments were carried out three times.

[2] = system: S. epidermidis ATCC 14990; experiment: MIC determination, reference strain (microdilution); format: cell-based; conditions: Staphylococcus epidermidis, ATCC14990; S. epidermidis ATCC 14990; Co-trimoxazole as sulfamethoxazole/trimethoprim; read-out: MIC
E. faecalis ATCC 51299 = experiment: as above; format: cell-based; conditions: Enterococcus faecalis, ATCC51299; E. faecalis ATCC 51299; Co-trimoxazole as sulfamethoxazole/trimethoprim; read-out: MIC
HEK-293 cells = experiment: MTT assay, noncancerous cells; format: cell-based; conditions: Homo sapiens, HEK293; HEK-293; MTT, 24 h treatment; read-out: IC50
HeLa cells = experiment: MTT assay; format: cell-based, human; conditions: for IC50: HeLa, MTT, 24 h treatment; for Selectivity index (SI): IC50 HEK-293 / IC50 HeLa
in vitro = conditions: sheep, defibrinated sheep blood diluted 1:9 v/v with PBS, pH 7
SKOV-3 cells = experiment: MTT assay; format: cell-based, human; conditions: for IC50: Homo sapiens, SK-OV-3, SKOV-3, MTT, 24 h treatment, read-out: IC50; for Selectivity index (SI): IC50 HEK-293 / IC50 SKOV-3
E. coli ATCC 8739 = experiment: MIC determination, reference strain (microdilution); format: cell-based; conditions: Escherichia coli, ATCC8739; E. coli ATCC 8739; Co-trimoxazole as sulfamethoxazole/trimethoprim; read-out: MIC
C. albicans ATCC 10231 = experiment: MIC determination, reference fungal strain (microdilution); format: cell-based; conditions: Candida albicans, ATCC10231; C. albicans ATCC 10231; read-out: MIC
B. subtilis ATCC 6633 = experiment: MIC determination, reference strain (microdilution); format: cell-based; conditions: Bacillus subtilis, ATCC6633; B. subtilis ATCC 6633; Co-trimoxazole as sulfamethoxazole/trimethoprim; read-out: MIC
S. aureus ATCC 6538 = experiment: as above; format: cell-based; conditions: Staphylococcus aureus, ATCC6538; S. aureus ATCC 6538; ± SD; Co-trimoxazole as sulfamethoxazole/trimethoprim; read-out: MIC
E. hirae ATCC 10541 = experiment: as above; format: cell-based; conditions: Enterococcus hirae, ATCC10541; E. hirae ATCC 10541; Co-trimoxazole as sulfamethoxazole/trimethoprim; read-out: MIC
MCF-7 cells = experiment: MTT assay; format: cell-based, human; conditions: for IC50: Homo sapiens, MCF7, MCF-7, MTT, 24 h treatment, read-out: IC50; for Selectivity index (SI): IC50 HEK-293 / IC50 MCF-7
[3] = system: cancer cells (HeLa, SKOV-3, MCF-7); experiment: MTT assay, summary statements on the cancer cells; format: cell-based; conditions: Homo sapiens, cell line not specified
[4] = system: clinical strains of Enterococcus sp.; experiment: MIC on clinical Enterococcus strains; format: cell-based; conditions: Enterococcus sp. 3937152; read-out: MIC
[5] = Homo sapiens, 24 h, read-out: IC50

Cc1cc(S(=O)(=O)NC(=O)/C=C/c2ccc(Br)cc2)c(SCc2cccc3ccccc23)cc1Cl [Compound 16b, (E)–3–(4–Bromophenyl)–N–{[4–chloro–5–methyl–2–(naphthalen–1–yl)methylthio]phenylsulfonyl}acrylamide]
IC50 ABTS (ABTS assay): 697.68 ± 1.26 µg/mL (≈ 1190 µM) | MIC (C. diphtheriae): 62.5 ± 0.29 µg/mL (≈ 106 µM) | IC50 DPPH (DPPH assay): 945.37 ± 0.14 µg/mL (≈ 1610 µM) | MIC [1]: 1 to 2 µg/mL (≈ 1.7 to 3.41 µM) | MIC [2]: 1 ± 0.29 µg/mL (≈ 1.7 µM) | MIC (E. faecalis ATCC 51299): 2 ± 0.58 µg/mL (≈ 3.41 µM) | IC50 (HEK-293 cells): 15.7 ± 1.62 µg/mL (≈ 26.7 µM) | IC50 (HeLa cells; [5]): 13.47 ± 0.13 µg/mL (≈ 22.9 µM) | Selectivity index (SI) (HeLa cells): 1.2 | hemolysis at 24 h, 31.25 µg/mL (in vitro): 12 to 20% | IC50 (SKOV-3 cells): 16.6 ± 0.69 µg/mL (≈ 28.3 µM) | Selectivity index (SI) (SKOV-3 cells): 0.9 | MIC (E. coli ATCC 8739): > 125 µg/mL | MIC (C. albicans ATCC 10231): > 125 µg/mL | MIC (B. subtilis ATCC 6633): 62.5 ± 0.29 µg/mL (≈ 106 µM) | MIC (S. aureus ATCC 6538): 1 ± 0.29 µg/mL (≈ 1.7 µM) | MIC (E. hirae ATCC 10541): 2 ± 0.58 µg/mL (≈ 3.41 µM) | IC50 (MCF-7 cells): 30.7 ± 2.49 µg/mL (≈ 52.3 µM) | Selectivity index (SI) (MCF-7 cells): 0.5

Cc1cc(S(=O)(=O)NC(=O)/C=C/c2ccc(F)cc2)c(SCc2cccc3ccccc23)cc1Cl [Compound 16c, (E)–N–{4–Chloro–5–methyl–2–[(naphthalen–1–yl)methylthio]phenylsulfonyl}–3–(4–fluorophenyl)acrylamide]
IC50 ABTS (ABTS assay): 622.23 ± 2.25 µg/mL (≈ 1180 µM) | MIC (C. diphtheriae): > 125 µg/mL | IC50 DPPH (DPPH assay): 620.47 ± 0.67 µg/mL (≈ 1180 µM) | MIC [1]: 1 to 2 µg/mL (≈ 1.9 to 3.8 µM) | IC50 ([3]; MTT): < 10 µg/mL | IC50 ([3]; µg/mL bound converted): ≤ 20 µM | MIC [2]: 2 ± 0.58 µg/mL (≈ 3.8 µM) | MIC (E. faecalis ATCC 51299): 2 ± 0.58 µg/mL (≈ 3.8 µM) | IC50 (HEK-293 cells): 7.67 ± 0.21 µg/mL (≈ 14.6 µM) | IC50 (HeLa cells; [5]): 11.2 ± 0.2 µg/mL (≈ 21.3 µM) | Selectivity index (SI) (HeLa cells): 0.7 | IC50 (SKOV-3 cells): 9.28 ± 1.02 µg/mL (≈ 17.6 µM) | Selectivity index (SI) (SKOV-3 cells): 0.8 | MIC (E. coli ATCC 8739): > 125 µg/mL | MIC (C. albicans ATCC 10231): > 125 µg/mL | MIC (B. subtilis ATCC 6633): 62.5 ± 0.29 µg/mL (≈ 119 µM) | MIC (S. aureus ATCC 6538): 1 ± 0.29 µg/mL (≈ 1.9 µM) | MIC (E. hirae ATCC 10541): 2 ± 0.58 µg/mL (≈ 3.8 µM) | IC50 (MCF-7 cells): 11.2 ± 0.08 µg/mL (≈ 21.3 µM) | Selectivity index (SI) (MCF-7 cells): 0.7

Cc1cc(S(=O)(=O)NC(=O)/C=C/c2ccc([N+](=O)[O-])cc2)c(SCc2cc3c(cc2Cl)OCO3)cc1Cl [Compound 17d, (E)–N–{4–Chloro–2–[(6–chlorobenzo[d][1,3]dioxol–5–yl)methylthio]–5–methylphenylsulfonyl}–3–(4–nitrophenyl)acrylamide]
IC50 ABTS (ABTS assay): 419.18 ± 2.72 µg/mL (≈ 721 µM) | MIC (C. diphtheriae): 62.5 ± 0.29 µg/mL (≈ 107 µM) | IC50 DPPH (DPPH assay): 574.41 ± 1.34 µg/mL (≈ 988 µM) | IC50 ([3]; MTT): < 10 µg/mL | IC50 ([3]; µg/mL bound converted): ≤ 20 µM | MIC [2]: 2 ± 0.76 µg/mL (≈ 3.44 µM) | MIC (E. faecalis ATCC 51299): 8 ± 0.15 µg/mL (≈ 13.8 µM) | IC50 (HEK-293 cells): 15.4 ± 0.69 µg/mL (≈ 26.4 µM) | IC50 (HeLa cells): 9.99 ± 0.08 µg/mL (≈ 17.2 µM) | IC50 (HeLa cells; [5]): < 10 µg/mL | Selectivity index (SI) (HeLa cells): 1.5 | hemolysis at 24 h, 31.25 µg/mL (in vitro): 12 to 20% | MIC [4]: > 125 µg/mL | IC50 (SKOV-3 cells): 15.3 ± 0.16 µg/mL (≈ 26.4 µM) | Selectivity index (SI) (SKOV-3 cells): 1.0 | MIC (E. coli ATCC 8739): > 125 µg/mL | MIC (C. albicans ATCC 10231): > 125 µg/mL | MIC (B. subtilis ATCC 6633): 125 ± 0.29 µg/mL (≈ 215 µM) | MIC (S. aureus ATCC 6538): 4 ± 0.16 µg/mL (≈ 6.88 µM) | MIC (E. hirae ATCC 10541): 8 ± 0.15 µg/mL (≈ 13.8 µM) | IC50 (MCF-7 cells): 16.3 ± 0.27 µg/mL (≈ 28.1 µM) | Selectivity index (SI) (MCF-7 cells): 0.9
